The results in this text go back to patent US20150245596A1, “MELANOCORTIN RECEPTOR MUTANT MOUSE AND USES THEREOF” (THE GENERAL HOSPITAL CORPORATION, priority 2012, published 2015).

One experiment deals with redhead-BRaf^CA melanoma. Kind of experiment: In vivo PLX4720 study, mouse chow containing PLX4720. The following applies: 4 weeks of mouse chow containing 2% PLX4720 by weight, n=3.
Experiment [1] relates to melanocytic markers (Mitf, Dct, Tyrp1 mRNA). In words: Quantitative RT-PCR of melanocytic markers in primary cultured tumor cells. Format: cell-based, mouse. The following applies: 2 μM PLX4720, mRNA normalized to 18s rRNA and 0 h timepoint. The method, then:
RNA was harvested from primary cultured tumor cells treated for varying times with forskolin or PLX4720 using the RNeasy Plus mini kit (QIAGEN). mRNA expression of melanocytic markers was determined using intron-spanning mouse-specific primers with Kapa SYBR FAST qPCR master mix (KAPA BIOSYSTEMS). Expression was normalized to 18s rRNA and 0 hour time-points.

The subject of experiment [2] is primary cell line derived from one of the redhead (BRaf^V600E-Mc1r^e/e) melanomas. To be noted: redhead-derived melanoma cells.
Protocol: (§1) Tumor cells were digested overnight in 10 mg/ml collagenase and 1 mg/ml hyaluronidase. Initially tumor cells were grown in RPMI media with HEPES and 20% serum. Subsequently tumor cells were grown in DMEM media with 10% serum.
Experiment [3] has the same test system. In words: cells. The following applies: Mus musculus, 72 h, read-out: GI50, melanoma cell proliferation.
Protocol: as §1

“Also recorded” adds a separate entry of the source.

Protocol for redhead-BRaf^CA melanoma: At 6-10 weeks of age the dorsal fur was trimmed using animal shears with a 0.25 mm head and the mice were treated topically with 20 mg/ml tamoxifen for 5 consecutive days. […] For in vivo PLX4720 studies, animals were given ad libitum mouse chow containing 2% PLX4720 by weight or control chow acquired from Plexxikon Inc. All studies and procedures involving animal subjects were approved by the Institutional Animal Care and Use Committees of Massachusetts General Hospital and Dana-Farber Harvard Cancer Center and were conducted strictly in accordance with the approved animal handling protocol.

On to `CCCS(=O)(=O)Nc1ccc(F)c(C(=O)c2c[nH]c3ncc(Cl)cc23)c1F` [PLX4720], for which the “melanoma growth in vivo” value with redhead-BRaf^CA melanoma is recorded as “blocked tumor cell growth in vivo; also recorded: blocks melanoma growth in vivo”. Further, the “expression of melanocytic markers” value in experiment [1] is “upregulates”. In experiment [2], the “melanoma cell proliferation in vitro” value is “prevented melanoma cell proliferation in vitro”. Further, the GI50 in experiment [3] was determined as 500 nM.

In the case of `N#CC(=C(/N)Sc1ccccc1N)/C(C#N)=C(\N)Sc1ccccc1N` [U0126], the “melanoma cell proliferation in vitro” value in experiment [2] is recorded as “prevented melanoma cell proliferation in vitro”. Further, the GI50 in experiment [3] stood at 2000 nM.
